These results are taken from patent US6995184B2, “3-arylindole derivatives and their use as CB2 receptor agonists” (Sanofi-Aventis, priority 2000, dated 2006).

This experiment deals with T1, cannabinoid receptors present in the mouse spleen (Mus musculus, UniProt P47936).
T1 construct: from tissue; host or cells: mouse spleen
Briefly: In vivo affinity for cannabinoid receptors in mouse spleen after oral administration. The protocol: The tests were carried out according to the experimental conditions described by Rinaldi-Carmona et al., J. Pharmacol. Exp. Ther., 1998, 284, 644–650.
Thus, the compounds of Examples 7, 44, 46, 72, 89, 106, 120, 130 and 132, for which the ratio of the affinity for the CB1 receptors to that for the CB2 receptors is between 400 and 4 000, are active orally with an ED50 of between 0.2 mg/kg and 20 mg/kg.

T1 sequence (P47936 whole entry): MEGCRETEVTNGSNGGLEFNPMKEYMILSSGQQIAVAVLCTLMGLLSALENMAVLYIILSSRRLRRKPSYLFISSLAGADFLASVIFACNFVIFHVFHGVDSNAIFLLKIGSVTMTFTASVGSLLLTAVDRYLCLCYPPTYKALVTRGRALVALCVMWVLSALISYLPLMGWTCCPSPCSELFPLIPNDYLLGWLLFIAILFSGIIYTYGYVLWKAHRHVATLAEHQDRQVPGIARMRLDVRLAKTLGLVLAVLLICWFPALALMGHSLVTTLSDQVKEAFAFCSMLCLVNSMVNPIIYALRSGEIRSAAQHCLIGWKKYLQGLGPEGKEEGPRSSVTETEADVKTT

`Cc1c(C(=O)c2cccc(Cl)c2Cl)c2cccc(Br)c2n1CCCS(C)(=O)=O` [Example 7, (7-Bromo-2-methyl-1-(3-(methylsulphonyl)propyl)-1H-indol-3-yl)(2,3-dichlorophenyl)methanone]: the median effective dose (ED50) is 0.2 to 20 mg/kg. Under `Cc1c(C(=O)c2cccc(C(F)(F)F)c2F)c2ccc(Cl)c(Cl)c2n1CCCNS(C)(=O)=O` [Example 72, N-(3-(6,7-Dichloro-3-[2-fluoro-3-(trifluoromethyl)benzoyl]-2-methyl-1H-indol-1-yl)propyl)methanesulphonamide] stands 0.2 to 20 mg/kg.
